Test results taken from ChEMBL document CHEMBL1201862, “PubChem BioAssay data set” (2004).
The source made the active and inactive calls.

Assays:
[1] = cells; format: functional, cell-based
[2] = cells; format: functional, cell-based; remark: listed apart in the source
[3] = test system: SN12K1; assay: cells; format: functional; settings: Homo sapiens
[4] = test system: P388; assay: cells; format: functional; settings: Mus musculus;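 also: compound exposure lasted 48 hours before growth was measured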
[5] = target: T1, Ubiquitin-conjugating enzyme E2 N (Homo sapiens, UniProt P61088); format: functional;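 also: Dose-response confirmation in a TR-FRET assay detecting UBC13-driven polyubiquitin chain formation, inhibition measured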
T1 sequence (P61088 whole entry): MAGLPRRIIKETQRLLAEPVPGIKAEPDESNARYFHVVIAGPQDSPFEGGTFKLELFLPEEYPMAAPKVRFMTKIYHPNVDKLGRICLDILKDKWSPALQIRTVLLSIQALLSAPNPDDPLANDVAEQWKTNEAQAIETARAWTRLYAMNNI

[6] = target: Fatty acid synthase (Homo sapiens, UniProt P49327); assay: FAS thioesterase domain inhibitors, dose response, biochemical, kinetic fluorescence intensity (AID 624326); format: functional;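 also: rate of fluorescence rise from hydrolysis of a fluorogenic O-methyl fluorescein ester substrate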
Sequence of Fatty acid synthase (P49327 whole entry, the tested form may be a part): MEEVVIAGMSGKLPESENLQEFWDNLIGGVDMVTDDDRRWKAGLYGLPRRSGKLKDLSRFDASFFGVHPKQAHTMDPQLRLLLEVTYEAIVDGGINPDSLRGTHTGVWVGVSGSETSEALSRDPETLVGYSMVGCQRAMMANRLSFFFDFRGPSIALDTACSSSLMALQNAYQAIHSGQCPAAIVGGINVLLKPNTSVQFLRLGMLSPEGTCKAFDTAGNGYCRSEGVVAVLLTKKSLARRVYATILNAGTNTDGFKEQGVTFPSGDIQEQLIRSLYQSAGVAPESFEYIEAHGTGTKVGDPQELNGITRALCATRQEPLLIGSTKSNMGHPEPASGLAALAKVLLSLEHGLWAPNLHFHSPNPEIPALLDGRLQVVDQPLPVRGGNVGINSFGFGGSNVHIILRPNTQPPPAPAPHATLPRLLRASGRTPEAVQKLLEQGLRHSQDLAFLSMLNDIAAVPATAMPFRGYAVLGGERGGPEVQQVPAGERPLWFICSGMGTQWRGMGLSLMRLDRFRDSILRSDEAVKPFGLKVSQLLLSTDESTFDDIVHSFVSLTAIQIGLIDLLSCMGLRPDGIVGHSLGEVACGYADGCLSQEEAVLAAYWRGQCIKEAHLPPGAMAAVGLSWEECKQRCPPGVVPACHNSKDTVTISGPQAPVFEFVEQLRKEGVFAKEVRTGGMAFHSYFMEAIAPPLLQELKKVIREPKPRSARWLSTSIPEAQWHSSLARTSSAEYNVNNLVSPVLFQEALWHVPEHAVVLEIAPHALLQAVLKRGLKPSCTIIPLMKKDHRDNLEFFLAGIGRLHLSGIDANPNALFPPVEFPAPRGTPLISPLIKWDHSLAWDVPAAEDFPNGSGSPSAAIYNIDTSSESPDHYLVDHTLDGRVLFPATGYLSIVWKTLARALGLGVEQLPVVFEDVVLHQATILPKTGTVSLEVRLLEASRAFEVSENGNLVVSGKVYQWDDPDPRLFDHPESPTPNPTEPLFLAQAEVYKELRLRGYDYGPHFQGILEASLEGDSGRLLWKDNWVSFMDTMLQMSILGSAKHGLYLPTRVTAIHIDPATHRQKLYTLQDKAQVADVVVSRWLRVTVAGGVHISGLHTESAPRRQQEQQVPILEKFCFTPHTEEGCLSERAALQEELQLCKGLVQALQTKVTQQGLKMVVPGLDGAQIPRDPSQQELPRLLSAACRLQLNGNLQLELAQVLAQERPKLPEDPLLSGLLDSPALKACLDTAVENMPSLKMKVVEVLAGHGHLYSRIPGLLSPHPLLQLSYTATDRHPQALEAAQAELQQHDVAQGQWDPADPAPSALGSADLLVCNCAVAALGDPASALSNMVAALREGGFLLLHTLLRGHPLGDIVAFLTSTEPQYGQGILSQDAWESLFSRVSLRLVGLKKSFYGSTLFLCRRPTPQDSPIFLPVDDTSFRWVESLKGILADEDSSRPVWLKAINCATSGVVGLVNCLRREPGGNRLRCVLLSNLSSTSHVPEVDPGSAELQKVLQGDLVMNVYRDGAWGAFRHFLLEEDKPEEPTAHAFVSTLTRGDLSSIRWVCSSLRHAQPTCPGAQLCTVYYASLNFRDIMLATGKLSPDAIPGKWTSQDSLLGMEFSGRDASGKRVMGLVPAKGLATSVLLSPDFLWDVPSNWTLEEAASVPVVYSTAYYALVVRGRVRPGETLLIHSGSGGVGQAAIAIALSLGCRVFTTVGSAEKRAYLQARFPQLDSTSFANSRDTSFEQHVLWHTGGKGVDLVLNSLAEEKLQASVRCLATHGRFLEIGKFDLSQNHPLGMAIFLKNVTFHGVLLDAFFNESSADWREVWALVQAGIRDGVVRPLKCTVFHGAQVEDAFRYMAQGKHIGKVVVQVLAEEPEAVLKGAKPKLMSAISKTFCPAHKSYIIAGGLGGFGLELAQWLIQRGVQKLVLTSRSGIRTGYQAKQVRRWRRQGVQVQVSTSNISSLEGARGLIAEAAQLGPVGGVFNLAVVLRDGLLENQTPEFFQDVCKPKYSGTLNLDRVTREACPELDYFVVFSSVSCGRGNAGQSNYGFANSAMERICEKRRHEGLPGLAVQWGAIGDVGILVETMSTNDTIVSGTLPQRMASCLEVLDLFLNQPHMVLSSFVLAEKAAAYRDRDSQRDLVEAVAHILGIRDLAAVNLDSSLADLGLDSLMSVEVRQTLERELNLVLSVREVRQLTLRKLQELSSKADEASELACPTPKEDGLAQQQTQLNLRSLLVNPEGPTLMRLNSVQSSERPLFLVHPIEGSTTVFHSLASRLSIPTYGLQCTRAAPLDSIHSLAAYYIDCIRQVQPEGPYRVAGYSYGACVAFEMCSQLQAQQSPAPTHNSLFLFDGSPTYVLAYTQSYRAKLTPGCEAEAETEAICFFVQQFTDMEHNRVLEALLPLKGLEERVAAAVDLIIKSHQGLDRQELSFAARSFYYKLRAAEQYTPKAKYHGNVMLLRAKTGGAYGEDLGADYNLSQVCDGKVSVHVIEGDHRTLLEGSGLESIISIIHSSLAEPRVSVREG

[7] = Luminescence Cell-Based Dose Retest to Confirm Inhibitors of Cancer Stem Cells. [Related pubchem assays (depositor defined):AID2717, AID2721]; format: functional; settings: Homo sapiens
[8] = target: Heat shock protein HSP 90-alpha (Homo sapiens, UniProt P07900); format: functional, organism-based
[9] = Shn3 3'UTR reporter inhibitors, dose response, cell-based, Clone20 osteoblasts, firefly luciferase, cherry-picked (AID 624132); format: functional;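 also: firefly luciferase luminescence from reporter carrying the Shn3 3'UTR in osteoblasts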
[10] = control 3'UTR Renilla luciferase suppression, dose response, counter-screen for Shn3 inhibitor project, cell-based, Clone20-Shn3RL, cherry-picked (AID 624133); format: functional
[11] = target: Paired box protein Pax-8 (Homo sapiens, UniProt Q06710); assay: inhibitors of PAX8-driven TPO luciferase reporter, dose response, RMG-I cells, cherry-pick (AID 687027); format: functional, cell-based;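 also: luciferase reporter driven by Pax8 target thyroperoxidase promoter measured by SteadyGlo luminescence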
Sequence of Paired box protein Pax-8 (Q06710 whole entry): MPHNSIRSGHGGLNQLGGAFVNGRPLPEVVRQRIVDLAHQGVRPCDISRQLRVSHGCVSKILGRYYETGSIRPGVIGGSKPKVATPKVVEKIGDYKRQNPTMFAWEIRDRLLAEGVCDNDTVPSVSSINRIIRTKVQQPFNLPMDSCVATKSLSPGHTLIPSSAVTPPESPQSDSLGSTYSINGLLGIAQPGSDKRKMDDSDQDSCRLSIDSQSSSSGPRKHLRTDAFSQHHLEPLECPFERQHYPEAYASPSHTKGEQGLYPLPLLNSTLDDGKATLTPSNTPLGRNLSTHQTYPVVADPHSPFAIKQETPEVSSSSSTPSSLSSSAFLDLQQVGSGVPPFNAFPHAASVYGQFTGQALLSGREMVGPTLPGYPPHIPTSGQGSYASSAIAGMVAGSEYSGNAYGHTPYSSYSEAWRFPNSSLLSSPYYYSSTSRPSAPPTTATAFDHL

[12] = growth suppression of PTEN-null colon cells, dose response, cell-based, HCT116 PTEN knockout (AID 1047); format: functional;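 also: HCT116 colon tumor cells with PTEN knocked out; cells exposed to compound for 60 hours before readout; potency for loss of cell viability measured by luminescence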
[13] = growth suppression of beta-catenin-knockout colon cells, dose response, cell-based, HCT116, human colon tumor (AID 1045); format: functional;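 also: HCT116 colon tumor cells with beta catenin knocked out; cells exposed to compound for 60 hours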
[14] = target: T2, Heat shock factor protein 1 (Mus musculus, UniProt P38532); assay: HSF1 potentiators in luciferase reporter cells, confirmation, cell-based, NIH3T3, luminescence, dose retest (AID 435004); format: functional;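 also: stress induced by proteasome inhibitor MG132 added 30 min after compound; luciferase reporter driven by HSF1 response element in NIH3T3 cells; actives raise luminescence as potentiators of the MG132 stress response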
T2 sequence (P38532 whole entry): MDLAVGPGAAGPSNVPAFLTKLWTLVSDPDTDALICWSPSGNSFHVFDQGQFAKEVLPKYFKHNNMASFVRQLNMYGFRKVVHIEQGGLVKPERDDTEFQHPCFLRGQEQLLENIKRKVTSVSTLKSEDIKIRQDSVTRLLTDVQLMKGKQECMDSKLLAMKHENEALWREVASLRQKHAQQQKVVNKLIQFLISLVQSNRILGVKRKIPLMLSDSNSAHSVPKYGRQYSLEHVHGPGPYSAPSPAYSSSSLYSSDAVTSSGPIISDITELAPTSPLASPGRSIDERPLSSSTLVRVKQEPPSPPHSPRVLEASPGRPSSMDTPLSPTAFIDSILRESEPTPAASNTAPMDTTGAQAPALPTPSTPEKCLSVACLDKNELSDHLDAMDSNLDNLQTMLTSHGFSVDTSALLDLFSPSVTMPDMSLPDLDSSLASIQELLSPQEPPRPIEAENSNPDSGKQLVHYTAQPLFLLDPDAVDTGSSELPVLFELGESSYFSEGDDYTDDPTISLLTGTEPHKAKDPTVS

[15] = target: T3, Replicative DNA helicase DnaB (Mycobacterium tuberculosis, UniProt P9WMR3); assay: DnaB intein splicing inhibitors, dose response, biochemical, cell-free fluorescence (AID 449749); format: functional
T3 sequence (P9WMR3 whole entry): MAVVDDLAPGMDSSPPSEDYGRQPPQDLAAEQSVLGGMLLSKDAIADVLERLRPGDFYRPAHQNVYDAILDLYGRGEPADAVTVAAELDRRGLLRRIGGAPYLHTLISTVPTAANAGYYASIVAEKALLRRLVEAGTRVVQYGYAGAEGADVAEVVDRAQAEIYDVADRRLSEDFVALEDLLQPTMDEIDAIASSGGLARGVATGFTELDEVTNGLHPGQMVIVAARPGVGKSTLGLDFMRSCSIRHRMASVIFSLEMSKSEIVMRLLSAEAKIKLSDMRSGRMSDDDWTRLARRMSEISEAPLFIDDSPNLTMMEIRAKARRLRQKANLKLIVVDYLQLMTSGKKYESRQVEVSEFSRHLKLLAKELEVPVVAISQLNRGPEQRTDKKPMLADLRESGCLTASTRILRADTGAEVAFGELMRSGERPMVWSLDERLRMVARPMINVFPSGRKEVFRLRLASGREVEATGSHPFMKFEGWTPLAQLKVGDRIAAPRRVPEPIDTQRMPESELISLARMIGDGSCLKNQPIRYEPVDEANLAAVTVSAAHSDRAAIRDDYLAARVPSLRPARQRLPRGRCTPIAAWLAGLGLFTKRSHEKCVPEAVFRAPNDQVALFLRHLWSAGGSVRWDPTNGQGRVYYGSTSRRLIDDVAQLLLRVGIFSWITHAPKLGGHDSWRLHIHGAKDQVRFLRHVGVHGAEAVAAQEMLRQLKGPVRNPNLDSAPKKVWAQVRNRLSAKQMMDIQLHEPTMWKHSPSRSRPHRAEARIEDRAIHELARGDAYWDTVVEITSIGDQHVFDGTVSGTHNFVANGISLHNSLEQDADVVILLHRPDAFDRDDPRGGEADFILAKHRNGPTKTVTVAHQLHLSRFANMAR

[16] = target: T4, Protein RecA (Mycobacterium tuberculosis, UniProt P9WHJ3); assay: Fluorescence Cell-Free Homogeneous Dose Retest to Identify Inhibitors of RecA-Intein Splicing Activity. [Related pubchem assays (depositor defined):AID2097, AID2223, AID489010, AID492950]; format: functional
T4 sequence (P9WHJ3 whole entry): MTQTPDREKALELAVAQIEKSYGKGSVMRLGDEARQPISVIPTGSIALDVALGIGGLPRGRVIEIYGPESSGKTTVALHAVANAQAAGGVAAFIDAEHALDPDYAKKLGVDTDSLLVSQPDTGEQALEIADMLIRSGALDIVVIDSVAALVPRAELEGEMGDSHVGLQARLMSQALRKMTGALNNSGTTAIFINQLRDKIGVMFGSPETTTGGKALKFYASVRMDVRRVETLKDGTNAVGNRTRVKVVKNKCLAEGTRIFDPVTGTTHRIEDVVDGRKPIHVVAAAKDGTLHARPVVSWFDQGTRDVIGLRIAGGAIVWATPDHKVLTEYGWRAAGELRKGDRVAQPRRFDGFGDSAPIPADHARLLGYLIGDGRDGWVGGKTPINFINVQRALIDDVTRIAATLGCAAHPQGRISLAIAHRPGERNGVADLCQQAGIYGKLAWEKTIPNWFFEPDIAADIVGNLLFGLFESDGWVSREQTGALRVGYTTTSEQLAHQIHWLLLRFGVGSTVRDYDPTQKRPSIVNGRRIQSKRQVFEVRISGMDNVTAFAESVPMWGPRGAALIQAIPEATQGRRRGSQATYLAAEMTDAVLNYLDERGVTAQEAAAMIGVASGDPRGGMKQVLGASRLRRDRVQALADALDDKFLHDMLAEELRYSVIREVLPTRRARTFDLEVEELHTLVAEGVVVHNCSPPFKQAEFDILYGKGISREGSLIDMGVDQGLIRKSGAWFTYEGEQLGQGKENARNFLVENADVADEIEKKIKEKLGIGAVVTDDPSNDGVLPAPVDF

[17] = test system: INS1; assay: beta cell apoptosis inhibitors, cytokine rescue, dose response, luminescence, retest (AID 449756); format: functional, cell-based; settings: Rattus norvegicus;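 also: cell death triggered by IL-1 beta plus TNF-alpha plus IFN-gamma mixture; protective hits raise ATP signal compared with cytokine alone wells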
[18] = inhibitors of intracellular T. cruzi replication, confirmation, NIH3T3 host cells, beta-gal luminescence (AID 2044); format: functional, cell-based;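 also: intracellular parasites grown in NIH/3T3 mouse fibroblasts as host cells; luminescent beta-galactosidase reporter signal from transgenic T. cruzi replicating inside host cells; inhibitors lower the luminescence signal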
[19] = cytotoxicity toward NIH3T3 fibroblasts, dose response, counter-screen, cell-based, ATP luminescence, mouse fibroblasts (AID 2010); format: functional;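 also: cells exposed to compound for about 90 hours before reading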
[20] = inhibitors of HIV Env-driven cell fusion, dose response, cherry-pick (AID 652057); format: functional, cell-based
[21] = ZM109 Env clade C HIV-1 fusion inhibitors, dose response, HeLa effector, CEM target cells, luciferase, cherry-pick (AID 652058); format: functional, cell-based
[22] = off-target signal loss in HeLa-CEM21 co-culture – HeLa F-luc CTL cells, cherry-picked, counter-screen for HIV-1 Env fusion inhibitor project, dose response (AID 652040); format: functional, cell-based;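 also: potency for signal decrease marking cytotoxic or nonspecific inhibition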
[23] = inhibitors of clade B AD8 Env fusion, dose response, cell-based, cherry-pick (AID 652062); format: functional;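 also: luciferase signal from cell-cell fusion driven by HIV-1 clade B AD8 Env; potency is for inhibitors of fusion seen as a drop in luminescence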
[24] = target: T5, Microphthalmia-associated transcription factor (Homo sapiens, UniProt O75030); assay: TRPM1 promoter luciferase signal decrease, dose response, MITF inhibitor project, cell-based, SK-MEL-5, cherry-picked, set 3 (AID 493073); format: functional
T5 sequence (O75030 whole entry): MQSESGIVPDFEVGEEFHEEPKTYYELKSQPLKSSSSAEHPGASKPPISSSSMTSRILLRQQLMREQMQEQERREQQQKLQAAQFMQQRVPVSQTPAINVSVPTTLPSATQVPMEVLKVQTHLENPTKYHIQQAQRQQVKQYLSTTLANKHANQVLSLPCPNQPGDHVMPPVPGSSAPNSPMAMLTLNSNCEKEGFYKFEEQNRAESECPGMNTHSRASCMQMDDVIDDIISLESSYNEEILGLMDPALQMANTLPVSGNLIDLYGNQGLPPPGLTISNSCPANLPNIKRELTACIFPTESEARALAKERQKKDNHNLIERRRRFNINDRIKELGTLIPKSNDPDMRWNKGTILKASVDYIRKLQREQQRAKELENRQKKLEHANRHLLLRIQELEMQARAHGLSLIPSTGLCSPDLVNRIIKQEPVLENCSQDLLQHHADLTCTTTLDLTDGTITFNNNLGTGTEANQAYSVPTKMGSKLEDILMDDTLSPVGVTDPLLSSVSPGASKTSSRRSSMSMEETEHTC

[25] = NIH-3T3 fibroblast cytotoxicity, dose response, cytotoxicity control, cell-based, fluorescence, Alamar Blue, secondary assay (AID 2327); format: functional;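 also: NIH-3T3 mouse fibroblasts cultured with fluconazole at 8 µg/mL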
[26] = C. albicans growth with fluconazole, confirmation, fluorescence, retest (AID 2467); format: functional, cell-based

O=C(O)/C=C/c1cnn(-c2ccccc2)c1
EC50 [1]: > 350 µM (not active)
EC50 [2]: 2.39 µM (active)

Nc1c(/N=N/c2ccc(-c3ccc(/N=N/c4c(O)ccc5cc(S(=O)(=O)O)cc(S(=O)(=O)O)c45)cc3)cc2)c(S(=O)(=O)O)cc2cc(S(=O)(=O)O)c(/N=N/c3ccccc3)c(O)c12
GI50 [3]: > 100 µM (inactive)
GI50 [4]: > 100 µM (inactive)

NC(S)=Nc1nc2ccccc2nc1O
IC50 [5]: > 20 µM (inactive)

O=C(COc1ccccc1)Nc1nc(-c2ccc(S(=O)(=O)N3CCOCC3)cc2)cs1
IC50 [6]: 0.489 µM (active)

COc1ccc(C)c2sc(N(CCCN(C)C)C(=O)c3ccc(S(=O)(=O)N(C)C)cc3)nc12
IC50 [5]: > 20 µM (inactive)

Cc1ccc2nc(-c3cccc(NS(C)(=O)=O)c3)cc(-c3ccccc3)c2c1
AC50 [7]: 4.13 µM (active)
AC50 [8]: 4.75 µM (active)

COC(=O)C1=C(c2ccc(F)cc2OCc2ccccc2)C[C@@H]2CC[C@H]1N2C(=O)NC1Cc2ccccc2C1
AC50 [9]: 8 µM (active)
AC50 [10]: 29.3 µM (active)
AC50 [11]: 9.27 µM (active)

CC[C@@H](C)[C@@H]1CN([C@@H](C)CN2CCC[C@H]2CN2C(N)=NC[C@@H]2Cc2ccccc2)C(=N)N1CCc1ccc(Cl)c(Cl)c1
IC50 [5]: > 20 µM (inactive)

O=S(=O)(NC1CC2CCC1C2)c1ccc(Cl)cc1 (stereo not drawn)
AC50 [8]: 0.538 µM (active)

COc1ccc2[nH]c(-c3cccc(N)c3)nc2c1
EC50 [1]: > 350 µM (not active)
EC50 [2]: 6.92 µM (active)

Cc1cc(C(=O)c2ccc(C(C)(C)C)cc2)c(NC(=O)CCl)s1
EC50 [12]: 9.12 µM (active)
EC50 [13]: 8.47 µM (active)
EC50 [14]: 7.73 µM (active)
AC50 [15]: 7.58 µM (active)
EC50 [16]: 2.97 µM (active)

CC(C)OCCCN=C(S)N1CCC(C(=O)c2ccc(Cl)cc2)CC1
AC50 [17]: 36.9 µM (active)

CC(C(=O)NC1CCCC1)N(C(=O)c1snc(C(N)=O)c1N)c1ccc2c(c1)OCCO2 (stereo not drawn)
IC50 [5]: > 20 µM (inactive)

CC(C)CCSc1nc(N)c(C#N)cc1C#N
EC50 [18]: 0.542 µM (active)
EC50 [19]: > 60 µM (not active)
AC50 [20]: 26.2 µM (active)
AC50 [21]: 32.3 µM (active)
AC50 [22]: 23.4 µM (active)
AC50 [23]: 25.6 µM (active)

CCOc1ccc(C(=O)NC(=S)Nc2cccc(NC(=O)c3ccco3)c2)cc1[N+](=O)[O-]
EC50 [1]: > 350 µM (not active)
EC50 [2]: > 350 µM (not active)

N/C(S)=N/N=C/c1ccc(O)cn1
GI50 [3]: 3.61 µM (inactive)
GI50 [4]: 1.95 µM (inactive)

CC(=O)Nc1cc2c(cc1Br)OCCO2
EC50 [1]: > 350 µM (not active)
EC50 [2]: > 350 µM (not active)

COC(=O)c1cc(=O)n(CCc2ccccc2F)/c(=N/c2ccc(F)c(Cl)c2)s1
AC50 [17]: 8.13 µM (active)

CCOC(=O)c1cccc(NS(=O)(=O)c2ccc(NC(C)=O)cc2)c1
AC50 [20]: 4.26 µM (active)
AC50 [22]: 39.7 µM (active)
AC50 [23]: 10 µM (active)

CN(C)C(=O)CSc1nc2ccccc2n1Cc1ccccc1
EC50 [1]: > 350 µM (not active)
EC50 [2]: > 350 µM (not active)

COc1ccc(CCNc2ccc(C(CC(N)=O)NC(=O)c3ccc(Br)cc3)cc2[N+](=O)[O-])cc1 (stereo not drawn)
AC50 [7]: 5.51 µM (active)
AC50 [17]: 12.9 µM (active)

COc1ccc(NC(=O)CCC(=O)N/N=C/c2ccc([N+](=O)[O-])s2)cc1
EC50 [12]: 11.5 µM (active)
EC50 [13]: 11.3 µM (active)
AC50 [24]: 7.62 µM (active)
AC50 [8]: 2.7 µM (active)

O=C(Nc1nc(-c2ccccn2)cs1)c1cc2ccccc2o1
EC50 [25]: 20.5 µM (active)
EC50 [26]: 1.49 µM (active)
EC50 [18]: 1.46 µM (active)
EC50 [19]: 9.05 µM (active)
AC50 [8]: 4.49 µM (active)

COC(=O)c1ccccc1S(=O)(=O)N1CCC(C(=O)N2CCC2)CC1
IC50 [5]: > 20 µM (inactive)
